Assay [1] has as its system mouse acetic acid writhing model. The assay can be described thus: Mouse acetic acid writhing model (effects on pain). The conditions noted are these: oral, 45 minutes before 0.6% acetic acid i.p., read-out: ED50 (dose by which the writhing response was inhibited by 50%). Format: in vivo. The procedure:
The mouse acetic acid writhing model, by which pain can be evaluated, was used to evaluate the analgesic effect of Compound (I).
Male ddY mice of 5 to 6 weeks old were fasted for 16 hours while allowing them to freely drink water, and a test compound solution or its vehicle was orally administered (10 mL/kg) to them. DMSO:Tween80:distilled water (1:1:8) or 27% hydroxypropyl-β-cyclodextrin (hereinafter “HP-β-CD”) was used as a vehicle of test compound solutions. Forty five minutes after the administration, 0.6% acetic acid solution (10 mL/kg) was intraperitoneally administered thereto to induce writhing response (i.e., the behavior to stretch the body and/or bend the body backward). The number of the writhing response observed for 10 minutes from 10 minutes after the administration of acetic acid solution was counted, which was taken as an indicator of pain.
Taking the mean number of writhing response of the vehicle group as 100%, the dose of a test compound by which the response was inhibited by 50% was expressed as “ED50”.
(In general: Writhing tests count abdominal constrictions after an irritant is injected.)

Assay [2] addresses T1, human muscarinic M5 receptor (Homo sapiens, UniProt P08912).
T1 construct: expressed in transfected cells; host or cells: CHO cells
T1 sequence (P08912 1-532): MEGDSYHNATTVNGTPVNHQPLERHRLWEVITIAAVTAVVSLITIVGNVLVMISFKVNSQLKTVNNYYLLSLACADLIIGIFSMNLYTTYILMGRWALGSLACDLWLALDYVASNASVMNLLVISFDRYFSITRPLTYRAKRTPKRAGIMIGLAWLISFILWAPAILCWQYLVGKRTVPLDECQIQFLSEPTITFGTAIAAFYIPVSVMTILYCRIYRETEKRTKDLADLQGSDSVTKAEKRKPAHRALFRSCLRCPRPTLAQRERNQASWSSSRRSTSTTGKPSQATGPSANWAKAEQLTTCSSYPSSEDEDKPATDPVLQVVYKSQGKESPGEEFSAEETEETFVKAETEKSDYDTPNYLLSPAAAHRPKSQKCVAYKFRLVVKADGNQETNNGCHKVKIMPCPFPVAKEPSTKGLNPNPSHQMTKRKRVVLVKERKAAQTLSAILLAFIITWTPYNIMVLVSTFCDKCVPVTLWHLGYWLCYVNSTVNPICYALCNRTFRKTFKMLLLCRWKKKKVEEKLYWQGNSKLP
The assay can be described thus: Binding ability to human muscarinic receptors ([3H]N-Methylscopolamine). Conditions: 0.8 nmol/L [3H]N-Methylscopolamine, CHO cells. The procedure:
(§1) CHO cells expressing human muscarinic M1, 2, 3, 4 and 5 receptors, respectively, were used (Buckley N J et al., Mol. Pharmacol., 1989, vol. 35, no. 4, p. 469-476). Receptor binding experiments were carried out according to a conventional method (Luthin G R et al., Pharmacol Exp Ther., 1984, vol. 228, no. 3, p. 648-655). As a radiolabeled ligand, 0.8 nmol/L [^3H]N-Methylscopolamine was used; and as a nonspecific ligand, 1 μmol/L Atoropine was used.

The target of assay [3] is T2, human muscarinic M4 receptor (Homo sapiens, UniProt P08173).
T2 construct: expressed in transfected cells; host or cells: CHO cells
T2 sequence (P08173 1-479): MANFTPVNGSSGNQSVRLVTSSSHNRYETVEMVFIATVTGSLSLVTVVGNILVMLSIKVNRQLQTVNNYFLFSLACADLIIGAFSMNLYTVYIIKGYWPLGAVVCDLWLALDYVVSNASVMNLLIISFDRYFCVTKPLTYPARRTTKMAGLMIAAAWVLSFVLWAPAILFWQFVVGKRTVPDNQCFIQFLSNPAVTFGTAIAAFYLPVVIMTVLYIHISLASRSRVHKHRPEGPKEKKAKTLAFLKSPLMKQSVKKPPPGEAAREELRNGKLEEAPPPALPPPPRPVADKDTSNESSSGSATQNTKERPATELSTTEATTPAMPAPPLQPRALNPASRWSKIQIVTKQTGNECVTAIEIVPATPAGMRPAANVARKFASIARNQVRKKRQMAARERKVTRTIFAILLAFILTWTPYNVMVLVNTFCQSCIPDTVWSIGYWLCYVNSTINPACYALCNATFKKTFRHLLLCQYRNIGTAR
The assay is described as above. Conditions: 0.8 nmol/L [3H]N-Methylscopolamine, CHO cells. The procedure: as §1

The target of assay [4] is T3, human muscarinic M2 receptor (Homo sapiens, UniProt P08172).
T3 construct: expressed in transfected cells; host or cells: CHO cells
T3 sequence (P08172 1-466): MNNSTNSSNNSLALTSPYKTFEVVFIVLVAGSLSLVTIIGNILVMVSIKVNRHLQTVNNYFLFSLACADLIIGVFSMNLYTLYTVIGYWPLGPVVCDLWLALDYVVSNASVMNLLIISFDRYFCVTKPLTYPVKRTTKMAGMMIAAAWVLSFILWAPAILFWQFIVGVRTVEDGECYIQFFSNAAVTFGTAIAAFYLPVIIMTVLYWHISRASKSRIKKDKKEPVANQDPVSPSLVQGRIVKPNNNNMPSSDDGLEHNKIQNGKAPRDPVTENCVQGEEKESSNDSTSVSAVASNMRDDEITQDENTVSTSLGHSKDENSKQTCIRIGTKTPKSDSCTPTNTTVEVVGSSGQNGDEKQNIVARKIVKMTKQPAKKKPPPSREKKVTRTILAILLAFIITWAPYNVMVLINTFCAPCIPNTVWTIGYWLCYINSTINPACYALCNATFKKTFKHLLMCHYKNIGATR
The assay is described as above. Conditions: 0.8 nmol/L [3H]N-Methylscopolamine, CHO cells. The procedure:
as §1

The target of assay [5] is T4, human muscarinic M1 receptor (Homo sapiens, UniProt P11229).
T4 construct: expressed in transfected cells; host or cells: CHO cells
T4 sequence (P11229 1-460): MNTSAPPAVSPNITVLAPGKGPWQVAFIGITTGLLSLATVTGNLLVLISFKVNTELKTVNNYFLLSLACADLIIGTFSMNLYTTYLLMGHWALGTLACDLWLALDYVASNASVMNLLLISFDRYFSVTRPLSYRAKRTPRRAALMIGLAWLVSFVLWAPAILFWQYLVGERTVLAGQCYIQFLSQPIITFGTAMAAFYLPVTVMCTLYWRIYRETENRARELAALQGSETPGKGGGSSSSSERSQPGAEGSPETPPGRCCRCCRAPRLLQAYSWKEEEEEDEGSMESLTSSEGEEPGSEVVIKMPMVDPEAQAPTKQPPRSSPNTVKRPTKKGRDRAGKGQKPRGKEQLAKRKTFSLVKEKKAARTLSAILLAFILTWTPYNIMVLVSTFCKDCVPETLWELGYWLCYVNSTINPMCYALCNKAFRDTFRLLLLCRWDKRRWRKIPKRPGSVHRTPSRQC
The description is as above. The conditions noted are these: 0.8 nmol/L [3H]N-Methylscopolamine, CHO cells. On the procedure: as §1

Assay [6] addresses T5, human muscarinic M3 receptor (Homo sapiens, UniProt P20309).
T5 construct: expressed in transfected cells; host or cells: CHO cells
The assay is described as above. Conditions: 0.8 nmol/L [3H]N-Methylscopolamine, CHO cells. On the procedure: as §1

The subject of assay [7] is cyclophosphamide-induced pollakiuria model rats. The assay can be described thus: Effects in cyclophosphamide-induced pollakiuria model rats (continuous cystometrograms). The conditions noted are these: 5 mg/kg intravenous; 20 minutes after vs 20 minutes before administration; compared to the vehicle group, p<0.05. Format: in vivo, rat. The procedure: In the experiments, 6 to 7 female SD rats of 7 to 11 weeks old were used for one experimental group. The pollakiuria model (Lecci A et al., British Journal of Pharmacology, 2000, vol. 130, p. 331) was prepared by intraperitoneally administering cyclophosphamide (SIGMA) to rats (150 mg/kg). This model has been considered to be useful as a model of urine storage disorders associated with inflammatory disease, in particular, a model of pollakiuria of interstitial cystitis. Four to five hours after administration of cyclophosphamide, pollakiuria model rats were anesthetized by intraperitoneal administration of urethane (1 g/kg). Thereafter, a small incision was formed in the hypogastrium, and both ureters were ligated, followed by forming small incision in the ureters at the side of the kidney. Next, the bladder apex of each pollakiuria model rat was incised, and a polyethylene tube filled with physiological saline was inserted and indwelled. […]
The number of voiding episodes was counted based on CMGs. Taking the number of voiding episodes counted for a time period of 20 minutes before the administration of the test compound as 100%, the number of voiding episodes counted for a time period of 20 minutes after the administration of the test compound was expressed in %, which was used as the ratio of change in the number of voiding episodes. […]

The subject of assay [8] is muscarinic receptor subtypes. The assay can be described thus: Binding ability to human muscarinic receptors, overall statement. The conditions noted are these: any of M1 to M5; 10 μmol/L. The procedure:
as §1

One may read the ED50 as the dose that gives a 50% effect, or the effect in half of the subjects.

Read-outs that look alike come from different tables or passages of the source.

T5 sequence (P20309 whole entry): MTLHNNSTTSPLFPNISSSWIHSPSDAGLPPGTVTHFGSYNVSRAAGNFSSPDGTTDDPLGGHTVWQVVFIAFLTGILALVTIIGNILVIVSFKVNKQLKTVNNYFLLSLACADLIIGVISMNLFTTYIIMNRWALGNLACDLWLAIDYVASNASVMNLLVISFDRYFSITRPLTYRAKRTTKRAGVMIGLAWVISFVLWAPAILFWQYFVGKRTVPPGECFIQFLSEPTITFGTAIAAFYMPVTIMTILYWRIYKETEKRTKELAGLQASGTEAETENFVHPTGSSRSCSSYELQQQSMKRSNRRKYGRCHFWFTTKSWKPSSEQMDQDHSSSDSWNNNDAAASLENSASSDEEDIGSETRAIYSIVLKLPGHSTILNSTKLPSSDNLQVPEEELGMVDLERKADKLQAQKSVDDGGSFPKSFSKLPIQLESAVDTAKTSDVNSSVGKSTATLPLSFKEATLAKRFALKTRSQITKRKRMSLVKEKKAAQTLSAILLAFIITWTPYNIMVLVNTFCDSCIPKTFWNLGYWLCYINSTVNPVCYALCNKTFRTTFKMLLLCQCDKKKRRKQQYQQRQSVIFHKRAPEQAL

As to `COc1ccc(-n2nc(C3(O)CCC(=O)CC3)cc2-c2ccc(C)cc2)cc1` [Compound 4, 4-hydroxy-4-(1-(4-methoxyphenyl)-5-(p-tolyl)-1H-pyrazol-3-yl)cyclohexan-1-one], in assay [1] (Vehicle A (DMSO:Tween80:distilled water=1:1:8)), the ED50 came to 1.95 mg/kg.
Take `COc1ccc(-n2nc(C3(O)CCC(O)CC3)cc2-c2ccc(C)cc2)cc1` (stereo not drawn) [Compound 3, 1-(1-(4-methoxyphenyl)-5-(p-tolyl)-1H-pyrazol-3-yl)cyclohexan-cis-1,4-diol]: the “Inhibition Ratio by 10 μmol/L Compound 3 (%)” value is recorded as −4% in assay [2]; −1% in assay [3]; −6% in assay [4]; −10% in assay [5]; −4% in assay [6]. In addition, in assay [7], the “increase in the number of voiding episodes (ratio of change in the number of voiding episodes)” value is reported as “significantly improved”. Also, the “binding to muscarinic receptor subtypes” value in assay [8] was “did not bind”.
For the compound `CCOC(=O)OC1CCC(O)(c2cc(-c3ccc(C)cc3)n(-c3ccc(OC)cc3)n2)CC1` (stereo not shown) [Compound 61], the 50% effective dose (ED50) in assay [1] (Vehicle B (HP-β-CD)) came out at 4.79 mg/kg.
Take `COc1ccc(-n2nc(C3(O)CCC(O)CC3)cc2-c2ccc(C#N)cc2)cc1` (stereo not shown) [Compound 51]: the ED50 in assay [1] (Vehicle B (HP-β-CD)) turned out to be 4.69 mg/kg.
Turning to `COc1ccc(-n2nc(C3(O)CCC(O)CC3)cc2-c2ccc(C)cc2)cc1F` (stereo not shown) [Compound 54], in assay [1] (Vehicle B (HP-β-CD)), the median effective dose (ED50) came to 3.73 mg/kg.
In the case of `Cc1ccc(-c2cc(C3(O)CCC(O)CC3)nn2-c2ccc(C#N)cc2)cc1` (stereo not shown) [Compound 49], the 50% effective dose (ED50) in assay [1] (Vehicle B (HP-β-CD)) is 2.69 mg/kg.
The same measure, in the same setting: to `COc1ccc(-c2nc(C3(O)CCC(O)(C(F)(F)F)CC3)sc2-c2ccc(C)cc2)cc1` (stereo not drawn) [Compound 46, 1-(4-(4-methoxyphenyl)-5-(p-tolyl)thiazol-2-yl)-4-(trifluoromethyl)cyclohexan-cis-1,4-diol] belongs 9.65 mg/kg.
Still for that read-out and setting: the figure for `COc1ccc(-n2nc(C3(O)CCC(OC(=O)OC4CCCCC4)CC3)cc2-c2ccc(C)cc2)cc1` (stereo not drawn) [Compound 60, cyclohexyl 4-hydroxy-4-(1-(4-methoxyphenyl)-5-(p-tolyl)-1H-pyrazol-3-yl)-cis-cyclohexyl carbonate] is 6.18 mg/kg; for `COc1ccc(-n2nc(C3(O)CCC(OC(C)=O)CC3)cc2-c2ccc(C)cc2)cc1` (stereo not shown) [Compound 12, c-4-hydroxy-4-(1-(4-methoxyphenyl)-5-(p-tolyl)-1H-pyrazol-3-yl)-cyclohexan-r-1-yl acetate] it is 1.77 mg/kg; for `COc1ccc(-n2nc(C3(O)CCC(O)CC3)cc2-c2ccc(C)nc2)cc1` (stereo not drawn) [Compound 15, 1-(1-(4-methoxyphenyl)-5-(6-methylpyridin-3-yl)-1H-pyrazol-3-yl)cyclohexan-cis-1,4-diol] it is 6.07 mg/kg.
